Results as given in PubChem BioAssay AID2060904 (Molecular Pharmacology Branch, DTP, NCI, 2025).

System: 349418-098-R-PDC complex spheroid viability
Experiment: Anticancer human tumor 349418-098-R-PDC patient-derived lung adenocarcinoma cell line growth inhibition [RAS]
Conditions: for IC50: curve of first compound; for viability, T/C: stronger effect = lower value
Outline: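 Agents were tested in combination matrices in half-log decrements from a top concentration at or near clinical Cmax (10 microM if undetermined). Targets were multi-cell spheroids of tumour lines plus HUVEC and MSC stromal cells.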

[1] = second compound 0.00316 µM, first compound 0.0316 µM
[2] = second compound 0.00316 µM, first compound 0.1 µM
[3] = second compound 0.00316 µM, first compound 0.316 µM
[4] = second compound 0.00316 µM, first compound 1 µM
[5] = second compound 0.01 µM, first compound 0.0316 µM
[6] = second compound 0.01 µM, first compound 0.1 µM
[7] = second compound 0.01 µM, first compound 0.316 µM
[8] = second compound 0.01 µM, first compound 1 µM
[9] = second compound 0.0316 µM, first compound 0.0316 µM
[10] = second compound 0.0316 µM, first compound 0.1 µM
[11] = second compound 0.0316 µM, first compound 0.316 µM
[12] = second compound 0.0316 µM, first compound 1 µM
[13] = second compound 0.1 µM, first compound 0.0316 µM
[14] = second compound 0.1 µM, first compound 0.1 µM
[15] = second compound 0.1 µM, first compound 0.316 µM
[16] = second compound 0.1 µM, first compound 1 µM
[17] = second compound 0.316 µM, first compound 0.0316 µM
[18] = second compound 0.316 µM, first compound 0.1 µM
[19] = second compound 0.316 µM, first compound 0.316 µM
[20] = second compound 0.316 µM, first compound 1 µM
[21] = second compound 1 µM, first compound 0.0316 µM
[22] = second compound 1 µM, first compound 0.1 µM
[23] = second compound 1 µM, first compound 0.316 µM
[24] = second compound 1 µM, first compound 1 µM
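Note: spheroids exposed to compound for seven days before viability readout.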

In the case of CC(=O)OC12COC1CC(O)C1(C)C(=O)C(O)C3=C(C)C(OC(=O)C(O)C(NC(=O)OC(C)(C)C)c4ccccc4)CC(O)(C(OC(=O)c4ccccc4)C21)C3(C)C (stereo unspecified) + C=CC(=O)N1CCN(c2nc(OCC3CCCN3C)nc3c(F)c(-c4nc(N)cc(C)c4C(F)(F)F)c(Cl)cc23)C(C)C1, the IC50 (second compound 0.00316 µM) is reported as under 31.6 nM, the IC50 (second compound 0.01 µM) is reported as under 31.6 nM and the IC50 (second compound 0.0316 µM) is reported as under 31.6 nM. For the same molecule, the IC50 (second compound 0.1 µM) was under 31.6 nM, the IC50 (second compound 0.316 µM) was under 31.6 nM and the IC50 (second compound 1 µM) was under 31.6 nM. The viability, T/C [1] was 12.6%, the viability, T/C [2] was 17.8% and the viability, T/C [3] was 16.3%. It also gave a viability, T/C [4] of 20.1%, a viability, T/C (second compound 0.00316 µM, first compound 3.16 µM) of 23.8% and a viability, T/C (second compound 0.00316 µM, first compound 10 µM) of 23.6%. For the same molecule, the viability, T/C [5] was 12.8%, the viability, T/C [6] was 16.6% and the viability, T/C [7] was 14.5%. The viability, T/C [8] was 20.7%, the viability, T/C (second compound 0.01 µM, first compound 3.16 µM) was 19.3% and the viability, T/C (second compound 0.01 µM, first compound 10 µM) was 19.1%. It also gave a viability, T/C [9] of 16.9%, a viability, T/C [10] of 15.2% and a viability, T/C [11] of 15.4%. For the same molecule, the viability, T/C [12] was 22.6%, the viability, T/C (second compound 0.0316 µM, first compound 3.16 µM) was 22.9% and the viability, T/C (second compound 0.0316 µM, first compound 10 µM) was 26.5%. It also gave a viability, T/C [13] of 13%, a viability, T/C [14] of 15% and a viability, T/C [15] of 16.5%. The viability, T/C [16] was 16.1%, the viability, T/C (second compound 0.1 µM, first compound 3.16 µM) was 24.3% and the viability, T/C (second compound 0.1 µM, first compound 10 µM) was 21.4%. The viability, T/C [17] was 16.8%, the viability, T/C [18] was 18.1% and the viability, T/C [19] was 18.2%. The viability, T/C [20] was 18.2%, the viability, T/C (second compound 0.316 µM, first compound 3.16 µM) was 21.6% and the viability, T/C (second compound 0.316 µM, first compound 10 µM) was 25.6%. For the same molecule, the viability, T/C [21] was 13.8%, the viability, T/C [22] was 12% and the viability, T/C [23] was 18.8%. It also gave a viability, T/C [24] of 20.2%, a viability, T/C (second compound 1 µM, first compound 3.16 µM) of 20.2% and a viability, T/C (second compound 1 µM, first compound 10 µM) of 25.8%.

Molecule CCc1c2c(nc3ccc(O)cc13)-c1cc3c(c(=O)n1C2)COC(=O)[C@]3(O)CC + C=CC(=O)N1CCN(c2nc(OCC3CCCN3C)nc3c(F)c(-c4nc(N)cc(C)c4C(F)(F)F)c(Cl)cc23)C(C)C1 has an IC50 (second compound 0.00316 µM) of 0.951 nM, an IC50 (second compound 0.01 µM) of 1.8 nM and an IC50 (second compound 0.0316 µM) of 1.75 nM. It also gave an IC50 (second compound 0.1 µM) of 0.985 nM, an IC50 (second compound 0.316 µM) of 1.2 nM and an IC50 (second compound 1 µM) of 1.69 nM. The viability, T/C (second compound 0.00316 µM, first compound 0.000949 µM) was 50%, the viability, T/C (second compound 0.00316 µM, first compound 0.003 µM) was 28.8% and the viability, T/C (second compound 0.00316 µM, first compound 0.00949 µM) was 6.39%. For the same molecule, the viability, T/C (second compound 0.00316 µM, first compound 0.03 µM) was 4.43%, the viability, T/C (second compound 0.00316 µM, first compound 0.0949 µM) was 3.41% and the viability, T/C (second compound 0.00316 µM, first compound 0.3 µM) was 2.43%. For the same molecule, the viability, T/C (second compound 0.01 µM, first compound 0.000949 µM) was 69.1%, the viability, T/C (second compound 0.01 µM, first compound 0.003 µM) was 35% and the viability, T/C (second compound 0.01 µM, first compound 0.00949 µM) was 7.67%. The viability, T/C (second compound 0.01 µM, first compound 0.03 µM) was 4.23%, the viability, T/C (second compound 0.01 µM, first compound 0.0949 µM) was 2.64% and the viability, T/C (second compound 0.01 µM, first compound 0.3 µM) was 1.87%. It also gave a viability, T/C (second compound 0.0316 µM, first compound 0.000949 µM) of 70.9%, a viability, T/C (second compound 0.0316 µM, first compound 0.003 µM) of 31.7% and a viability, T/C (second compound 0.0316 µM, first compound 0.00949 µM) of 11.7%. For the same molecule, the viability, T/C (second compound 0.0316 µM, first compound 0.03 µM) was 4.13%, the viability, T/C (second compound 0.0316 µM, first compound 0.0949 µM) was 2.62% and the viability, T/C (second compound 0.0316 µM, first compound 0.3 µM) was 2.07%. It also gave a viability, T/C (second compound 0.1 µM, first compound 0.000949 µM) of 50.8%, a viability, T/C (second compound 0.1 µM, first compound 0.003 µM) of 27.1% and a viability, T/C (second compound 0.1 µM, first compound 0.00949 µM) of 10.5%. It also gave a viability, T/C (second compound 0.1 µM, first compound 0.03 µM) of 4.6%, a viability, T/C (second compound 0.1 µM, first compound 0.0949 µM) of 3.02% and a viability, T/C (second compound 0.1 µM, first compound 0.3 µM) of 2.05%. The viability, T/C (second compound 0.316 µM, first compound 0.000949 µM) was 57.2%, the viability, T/C (second compound 0.316 µM, first compound 0.003 µM) was 21.9% and the viability, T/C (second compound 0.316 µM, first compound 0.00949 µM) was 7.59%. The viability, T/C (second compound 0.316 µM, first compound 0.03 µM) was 4.71%, the viability, T/C (second compound 0.316 µM, first compound 0.0949 µM) was 2.92% and the viability, T/C (second compound 0.316 µM, first compound 0.3 µM) was 1.94%. The viability, T/C (second compound 1 µM, first compound 0.000949 µM) was 73.1%, the viability, T/C (second compound 1 µM, first compound 0.003 µM) was 26.9% and the viability, T/C (second compound 1 µM, first compound 0.00949 µM) was 9.24%. The viability, T/C (second compound 1 µM, first compound 0.03 µM) was 5.15%, the viability, T/C (second compound 1 µM, first compound 0.0949 µM) was 3.55% and the viability, T/C (second compound 1 µM, first compound 0.3 µM) was 2.46%.

In the case of Nc1ccn(C2OC(CO)C(O)C2(F)F)c(=O)n1 (stereo unspecified) + C=CC(=O)N1CCN(c2nc(OCC3CCCN3C)nc3c(F)c(-c4nc(N)cc(C)c4C(F)(F)F)c(Cl)cc23)C(C)C1, the IC50 (second compound 0.00316 µM) is reported as under 3.16 nM, the IC50 (second compound 0.01 µM) is reported as under 3.16 nM and the IC50 (second compound 0.0316 µM) is reported as under 3.16 nM. For the same molecule, the IC50 (second compound 0.1 µM) was under 3.16 nM, the IC50 (second compound 0.316 µM) was under 3.16 nM and the IC50 (second compound 1 µM) was under 3.16 nM. For the same molecule, the viability, T/C (second compound 0.00316 µM, first compound 0.00316 µM) was 21.5%, the viability, T/C (second compound 0.00316 µM, first compound 0.01 µM) was 7.36% and the viability, T/C [1] was 6.2%. It also gave a viability, T/C [2] of 4.92%, a viability, T/C [3] of 5.23% and a viability, T/C [4] of 5.62%. The viability, T/C (second compound 0.01 µM, first compound 0.00316 µM) was 17%, the viability, T/C (second compound 0.01 µM, first compound 0.01 µM) was 6.27% and the viability, T/C [5] was 5.91%. It also gave a viability, T/C [6] of 5.09%, a viability, T/C [7] of 5.47% and a viability, T/C [8] of 5.2%. It also gave a viability, T/C (second compound 0.0316 µM, first compound 0.00316 µM) of 21.6%, a viability, T/C (second compound 0.0316 µM, first compound 0.01 µM) of 6.92% and a viability, T/C [9] of 6.95%. For the same molecule, the viability, T/C [10] was 5.38%, the viability, T/C [11] was 5.08% and the viability, T/C [12] was 4.96%. The viability, T/C (second compound 0.1 µM, first compound 0.00316 µM) was 22.6%, the viability, T/C (second compound 0.1 µM, first compound 0.01 µM) was 6.48% and the viability, T/C [13] was 4.56%. The viability, T/C [14] was 4.77%, the viability, T/C [15] was 4.97% and the viability, T/C [16] was 4.84%. It also gave a viability, T/C (second compound 0.316 µM, first compound 0.00316 µM) of 19.2%, a viability, T/C (second compound 0.316 µM, first compound 0.01 µM) of 8.3% and a viability, T/C [17] of 4.99%. The viability, T/C [18] was 5.68%, the viability, T/C [19] was 6.7% and the viability, T/C [20] was 4.81%. For the same molecule, the viability, T/C (second compound 1 µM, first compound 0.00316 µM) was 22.9%, the viability, T/C (second compound 1 µM, first compound 0.01 µM) was 6.24% and the viability, T/C [21] was 4.96%. For the same molecule, the viability, T/C [22] was 6.96%, the viability, T/C [23] was 7.44% and the viability, T/C [24] was 5.82%.
